Positions of bridges follow the written chain, without caps; N, C: chain ends. Residues, ends and D or L forms follow the SMILES beside them.
Key:
[1] = system: trypsin; assay: Enzymatic stability with trypsin (RP-HPLC profile against control); type: in vitro ADME; conditions: trypsin (1 μL of 0.5 μg/μL), 37 °C, 10 μg peptide in 100 μL 100 mM ammonium bicarbonate buffer pH 7.8, RP-HPLC profile compared with control without trypsin, read-out: peptide not degraded when incubated with trypsin
Experimental: CRPs with a well-defined disulfide core are known for their compact structure and high resistance to heat and enzymatic degradation. This stability is an important characteristic for CRPs as putative bioactive peptides in order for them to survive decoction processes in traditional herbal preparations and to retain both bioavailability and pharmacological effects by oral administration. […] A total of 96% of lyba1 remained after heating in boiling water at 100 °C for 2 h. Similarly, 99% of the peptide remained intact after incubation in 2 M HCl for 3 h, and 99% of the peptide was not degraded when incubated with trypsin for 3 h (Fig. 5).
Figure 5 Stability assays of lybatide, lyba1. (A) Thermal stability of lyba1 incubated at 100 °C for 2 h. (B) Acidic condition stability of lyba1 incubated in 2.0 M HCl […] for […]. […] (D) Stability of lyba1 incubated in human serum for 60 min at 37 °C, DALK was used as a control. The molecular weight of the peak was determined by MALDI-MS. TEXT PRINTED IN THE PICTURE: (A) lyba1: Cald.: 3509; Found: 3509 | (B) lyba1: Cald.: 3509; Found: 3509 | (C) lyba1: Cald.: 3509; Found: 3509 DOUBTS OF THE COPYIST ABOUT THIS PICTURE: lyba1, panels A-C: 'Cald.' and 'Found' are printed with no measure or unit. I took them as molecular weight, but they may be only mass-spectrometric peak identification. […]

[2] = system: human umbilical vein endothelial cells (HUVEC-CS, ATCC CRL-2873); assay: MTT cell toxicity assay; type: cell-based; conditions: overnight incubation, tested up to 100 μM (method section: 0.01-10 μM)
Experimental: (§1) Many CRPs including defensins, thionins and hevein-like peptides display antimicrobial or cytotoxic activity.
(§2) Lybatide lyba1 was tested for its cytotoxicity effect against human umbilical vein endothelial cells (HUVEC-CS, ATCC CRL-2873), monkey kidney epithelial cells (Vero, ATCC CCL-81) and adenocarcinomic human alveolar basal epithelial cells (A549, ATCC CCL-185). Briefly, 1 × 10^4 cells per well in 100 μL were seeded into a 96-well plate (TPP, Switzerland) and incubated overnight. The supernatant was removed, and the cells were washed twice with phosphate buffered saline (PBS; Gibco, USA). The cells were then treated with lyba1 at concentrations 0.01 μM, 0.1 μM, 1 μM, and 10 μM and incubated overnight, with 10% DMSO used as positive control.
(§3) After incubation, MTT was added to the wells and the plate was incubated for 1.5 h at 36.7 °C. Next, 200 μL of 100% DMSO was added, incubated for 2 h, and the absorbance was determined with a microplate reader at 550 nm wavelength.

[3] = system: adenocarcinomic human alveolar basal epithelial cells (A549, ATCC CCL-185); assay: MTT cell toxicity assay; type: cell-based; conditions: overnight incubation, tested up to 100 μM (method section: 0.01-10 μM)
Experimental: as §1, §2, §3

[4] = system: monkey kidney epithelial cells (Vero, ATCC CCL-81); assay: MTT cell toxicity assay; type: cell-based; conditions: overnight incubation, tested up to 100 μM (method section: 0.01-10 μM)
Experimental: as §1, §2, §3

## CC[C@H](C)[C@@H]1NC(=O)[C@@H]2CSSC[C@H](NC(=O)[C@H](CO)NC(=O)[C@@H](N)CC(=O)O)C(=O)N[C@@H](CO)C(=O)N[C@@H](CCC(=O)O)C(=O)N[C@@H](Cc3ccc(O)cc3)C(=O)N[C@H]3CSSC[C@@H](C(=O)N4CCC[C@H]4C(=O)N[C@@H](CO)C(=O)O)NC(=O)[C@H](CSSC[C@H](NC(=O)[C@H](CO)NC(=O)[C@H](CC(N)=O)NC(=O)[C@H](CC(N)=O)NC(=O)[C@H](CO)NC3=O)C(=O)N3CCC[C@H]3C(=O)N[C@@H](Cc3ccc(O)cc3)C(=O)N[C@H]3CSSC[C@H](NC(=O)[C@H](CC(C)C)NC(=O)[C@H]([C@@H](C)O)NC(=O)[C@H](Cc4ccc(O)cc4)NC(=O)[C@H](CC(C)C)NC(=O)[C@H](CCCCN)NC(=O)[C@H](CCC(N)=O)NC(=O)CNC(=O)[C@H](CC(=O)O)NC3=O)C(=O)N2)NC(=O)[C@H]([C@@H](C)O)NC(=O)[C@H](CC(N)=O)NC1=O [lyba1] (H-DSCSEYCSNNSCPYCDGQKLYTLCCINTCCPS-OH; disulfide 3-25, 7-30, 12-29, 15-24)
[1]
  remaining at 3 h, 100 µg/mL: 99%
[2]
  cytotoxic effect: did not display any cytotoxic effect
[3]
  cytotoxic effect: did not display any cytotoxic effect
[4]
  cytotoxic effect: did not display any cytotoxic effect

Reference: PMC5507927, “Lybatides from Lycium barbarum Contain An Unusual Cystine-stapled Helical Peptide Scaffold” (Scientific Reports, 2017)
